Sequences and labels used below:
B1: α-keto acid reductase: NADH-dependent α-keto acid reductase purified from Leuconostoc mesenteroides subsp. dextranicum ATCC 17072; amino acid sequence SEQ ID NO: 2 (protein)
chain: MKIAIAGFGALGARLGVMLQAGGHEVTGIDGWPAHIAAINTKGLTVVKDNDAPQKYFVPVMPASEVTGTFDLIILLTKTPQLDRMLTDIQPIITDTTKLLVLSNGLGNIEVMAKHVSRHQILAGVTLWTSSLIKPGEIHVTGSGSIKLQAIGDADVQSIADALNQAGLNAEITPDVMTAIWHKAGINAVLNPLSVLLNANIAEFGTAGNAMDLALNILDEMKQVGASQGIKVDVSGIMTDLSQLLKPENAGNHFPSMYQDIQNGKRTEIDFLNGYFAKIGHESGIPTPFNALVTRLIHAKEDIERVKLAKQQENFEI
modifications: Leuconostoc mesenteroides

The text below walks through data of patent US7250278B2, “α-keto acid reductase, method for producing the same, and method for producing optically active α-hydroxy acids using the same” (Daicel Chemical Industries, Ltd., priority 2002, dated 2007).

For one data set, the system named is α-keto acid reductase. Put plainly: Dehydrogenase activity of α-keto acid reductase against 2-chloromandelic acid. It counts as biochemical, Leuconostoc mesenteroides subsp. dextranicum. The settings on record: coenzyme NAD^+, substrate 1 mM; reduction activity of 2-chlorophenyl glyoxylic acid taken as 100. The protocol: In the present invention, the dehydrogenase activity against 2-chloromandelic acid of an enzyme can be confirmed by the following assay procedure:incubate the enzyme at 30° C. in a reaction solution of 50 mM Tris-HCl buffer (pH 8.5) containing 2.5 mM NAD^+, and 1 mM 2-chloromandelic acid; and measure the increase in absorbance at 340 nm associated with the generation of NADH. 1 U is defined as an amount of enzyme that catalyzes the production of 1 μmol NADH in one minute.
(§1) The enzyme obtained in Example 9 was incubated with various α-keto acids, ketones, ketols, etc. The activities of the reduction reaction are shown in Table 8, defined as relative activities taking the reduction activity of 2-chlorophenyl glyoxylic acid as 100.
The molecule `O=C(O)C(O)c1ccccc1Cl` (racemic) [(R,S)-2-chloromandelic acid] returned a Relative activity of 0.022%.
Same read-out and setting: in the case of `O=C(O)[C@H](O)c1ccccc1Cl` [(R)-2-chloromandelic acid] it was 0.045%.

System in another data set: not given
Experiment: not given
It counts as biochemical, Leuconostoc mesenteroides subsp. dextranicum. The settings on record: purification steps from Leuconostoc mesenteroides subsp. dextranicum ATCC 17072, NADH-dependent. The protocol: Leuconostoc mesenteroides subsp. dextranicum strain (ATCC 17072) was cultured in 1.2 L of MRS medium (Lactobacilli MRS broth, Difco Laboratories), and then cells were harvested by centrifugation. The resulting wet cells were suspended in 50 mM Tris-HCl buffer (pH 8.5) containing 0.02% 2-mercaptoethanol and 2 mM phenylmethanesulfonyl fluoride (PMSF), and crushed with a bead beater (Biospec Products, Inc.). Then, cell debris was removed by centrifugation to prepare cell-free extract. Protamine sulfate was added to the cell-free extract and the mixture was centrifuged to prepare supernatant avoid of nucleic acid. Ammonium sulfate was added to the supernatant at a final concentration of 30%. […] NADH-dependent 2-chlorophenyl glyoxylic acid-reducing activity was detected in fractions eluted with the gradient. […]
2-chlorophenyl glyoxylic acid-reducing activities of the enzyme obtained in Example 9 at various pHs were determined by changing the pH with the use of potassium phosphate buffer, sodium acetate buffer, and Britten and Robinson broad-range buffer. […]
2-chlorophenyl glyoxylic acid-reducing activities of the enzyme obtained in Example 9 were measured under standard reaction conditions at various temperatures. […]
B1 had a Relative activity of 3810 U/mg.

Staying with this data set, now noted: purified enzyme, single band on SDS-PAGE.
B1: the Specific activity is 3,810 U/mg.

The next data set relates to α-keto acid reductase. As to the kind of experiment: Substrate specificity of α-keto acid reductase (reduction reaction). It counts as biochemical, Leuconostoc mesenteroides subsp. dextranicum. The settings on record: coenzyme NADH, substrate 1 mM; reduction activity of 2-chlorophenyl glyoxylic acid taken as 100. The protocol: as §1
In turn, `CCCCC(=O)C(=O)O` [α-ketocaproic acid] displayed a Relative activity of 4.3%.
Still for that read-out and setting: with `O=C(O)C(=O)Cc1ccccc1` [α-keto-4-phenylpyruvic acid] the figure was 0.1%; with `CC(C)(C)C(=O)C(=O)O` [trimethyl pyruvic acid], 0.1%.
Same read-out and setting: with `O=C(O)C(=O)Cc1ccccc1` [β-phenylpyruvic acid] the figure was 0.3%.
The same measure, in the same setting: in the case of `O=C(O)C(=O)c1ccccc1Cl` [2-chlorophenyl glyoxylic acid] it was 100.0%.
As for `CC(C)CC(=O)C(=O)O` [α-ketoisocaproic acid], the Relative activity was found to be 14.7%.
The same measure, in the same setting: with `O=C(O)C(=O)c1ccccc1` [phenyl glyoxylic acid] the figure was 12.9%; with `CCC(=O)C(=O)O` [α-ketobutyric acid], 0.4%; with `O=C(O)C(=O)c1cccc(Cl)c1` [3-chlorophenyl glyoxylic acid], 4.5%.
With `CC(C)C(=O)C(=O)O` [α-ketoisovaleric acid], the Relative activity is given as 19.3%.
The same measure, in the same setting: with `CCCC(=O)C(=O)O` [α-ketovaleric acid] the figure was 3.1%; with `CC(=O)C(=O)O` [pyruvic acid], 0.0%.

Staying with this data set, now noted: coenzyme NADH, substrate 5 mM; reduction activity of 2-chlorophenyl glyoxylic acid taken as 100.
The molecule `CC(C)(CO)C(=O)C(=O)O` [keto pantoic acid] had a Relative activity of 3.1%.

The data set is the same for the next values; noted with them: coenzyme NADPH, substrate 1 mM; NADH reduction of 2-chlorophenyl glyoxylic acid taken as 100.
Molecule `O=C(O)C(=O)c1ccccc1Cl` [2-chlorophenyl glyoxylic acid] gave a Relative activity of 0.4%.
